Assay results from patent US11571418B2, “Platinum compounds that inhibit constitutive STAT3 signaling and induce cell cycle arrest and apoptosis of malignant cells” (H. LEE MOFFITT CANCER CENTER AND RESEARCH INSTITUTE, INC., priority 2011, dated 2023).

Legend:
Stat3 [1] = biological target: T1, Stat3 (Mus musculus, UniProt P42227); conditions: Turkson et al., 2004b; cited from earlier work
T1 construct: Nuclear extract preparation from NIH3T3 stimulated by rhIL-6, NIH3T3/hEGFR stimulated by rhEGF; endogenous in cells; host or cells: NIH3T3/hEGFR fibroblasts stimulated with rhEGF (nuclear extract)

Stat1 = biological target: T2, Stat1 (Mus musculus, UniProt P42225); experiment: In vitro Stat1 DNA-binding activity assay, EMSA with hSIE or MGFe probe; conditions: pre-incubated 30 min before probe
T2 construct: Nuclear extract preparation from NIH3T3 stimulated by rhIL-6, NIH3T3/hEGFR stimulated by rhEGF; endogenous in cells; host or cells: NIH3T3/hEGFR fibroblasts stimulated with rhEGF (nuclear extract)
T2 sequence (P42225 2-749 limits assumed): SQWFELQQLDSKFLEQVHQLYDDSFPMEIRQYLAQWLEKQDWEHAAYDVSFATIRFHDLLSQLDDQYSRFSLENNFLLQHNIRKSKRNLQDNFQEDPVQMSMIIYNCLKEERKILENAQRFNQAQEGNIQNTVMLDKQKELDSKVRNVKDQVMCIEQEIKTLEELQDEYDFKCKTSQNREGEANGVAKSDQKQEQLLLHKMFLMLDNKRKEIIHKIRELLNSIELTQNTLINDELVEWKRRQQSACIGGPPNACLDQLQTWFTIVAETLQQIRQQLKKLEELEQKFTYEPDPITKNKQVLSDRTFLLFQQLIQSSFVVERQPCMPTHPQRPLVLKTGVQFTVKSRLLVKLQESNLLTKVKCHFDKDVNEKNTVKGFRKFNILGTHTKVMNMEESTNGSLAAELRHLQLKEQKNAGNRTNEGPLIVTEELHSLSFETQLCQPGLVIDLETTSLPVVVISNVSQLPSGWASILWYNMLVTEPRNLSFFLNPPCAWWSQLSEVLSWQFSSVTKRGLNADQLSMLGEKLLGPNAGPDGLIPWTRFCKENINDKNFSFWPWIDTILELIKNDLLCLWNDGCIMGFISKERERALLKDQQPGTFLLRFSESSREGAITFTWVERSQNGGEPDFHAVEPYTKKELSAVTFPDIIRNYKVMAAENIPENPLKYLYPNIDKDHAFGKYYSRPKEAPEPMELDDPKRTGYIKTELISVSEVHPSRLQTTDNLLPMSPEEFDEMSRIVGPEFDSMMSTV
Description: (§1) FIGS. 1A-1E. Inhibition of in vitro Stat3 DNA-binding activity by a platinum complex. Nuclear extracts or cell lysates containing activated Stat1, Stat3 and Stat5, or E2F1 prepared from NIH3T3/hEGFR that are stimulated with EGF or Sf-9 insect cells that are infected with baculovirus expressing Stat1, Stat3, Stat5, or E2F1, respectively, were treated with or without the indicated concentrations of platinum complex, PLATINUM-401 or Cisplatin, for 30 min at room temperature prior to incubation with radiolabeled oligonucleotide probes, and subjected to EMSA analysis. (FIG. 1A) (i) Stat1 and Stat3 binding activities to hSIE probe, (ii) Stat1 and Stat5 binding activities to MGFe probe, and (iii) plot of % oligonucleotide probe-STAT:STAT complexes versus concentration of PLATINUM-401. […] Positions of STAT: STAT-DNA complexes in gel are labeled. In (A) to (C), the control lanes represent DMSO (vehicle)-treatment.
(§2) Nuclear extract preparation and gel shift assays—Nuclear extract preparation from NIH3T3 stimulated by rhIL-6, NIH3T3/hEGFR stimulated by rhEGF, v-Src-transformed fibroblasts (NIH3T3/v-Src) or tumor cell lines and electrophoretic mobility shift assay were carried out as previously described (Turkson et al., 1998; Garcia et al., 1997; Yu et al., 1995). The ^32P-labeled oligonucleotide probes used are hSIE (high affinity sis-inducible element from the c-fos gene, m67 variant, 5′-[…]) (SEQ ID NO:1) that binds Stat1 and Stat3 (Garcia et al., 1997; Wagner et al., 1990) and MGFe (mammary gland factor element from the bovine β-casein gene promoter, 5′-AGATTTCTAGGAATTCAA) (SEQ ID NO:2) for Stat1 and Stat5 binding (49,50). Except where indicated, inhibitor compound was pre-incubated with the nuclear extract for 30 min at room temperature prior to incubation with radiolabeled probe.
Compounds from the NCI 2000 diversity set were screened for inhibition of Stat3 signaling in an in vitro DNA-binding activity assay based on analysis by electrophoretic mobility shift assay (EMSA). […]

Stat5 = experiment: In vitro Stat5 DNA-binding activity assay, EMSA with MGFe probe; parameters: species or system mouse; conditions: pre-incubated 30 min before MGFe probe
Description: as §1
Nuclear extract preparation and gel shift assays—Nuclear extract preparation from NIH3T3 stimulated by rhIL-6, NIH3T3/hEGFR stimulated by rhEGF, v-Src-transformed fibroblasts (NIH3T3/v-Src) or tumor cell lines and electrophoretic mobility shift assay were carried out as previously described (Turkson et al., 1998; Garcia et al., 1997; Yu et al., 1995). […]

Stat3 [2] = biological target: T1, Stat3; experiment: In vitro Stat3 DNA-binding activity assay, EMSA with hSIE probe; conditions: pre-incubated 30 min before hSIE probe
Description: as §1, §2
Compounds from the NCI 2000 diversity set were screened for inhibition of Stat3 signaling in an in vitro DNA-binding activity assay based on analysis by electrophoretic mobility shift assay (EMSA). A platinum (IV) complex, PLATINUM-401 (NSC 295558) (FIG. 1E), was identified as a potent inhibitor of Stat3 and was further characterized for its anti-Stat3 properties. In the in vitro DNA-binding activity assay, nuclear extracts of equal total protein containing active Stat1, Stat3 and Stat5 were pre-incubated with different concentrations of PLATINUM-401 for 30 min prior to incubation with a [^32P]-labeled oligonucleotide, the m67 high affinity sis-inducible element (hSIE) probe that binds Stat1 and Stat3, or the mammary gland factor element (MGFe) that binds Stat1 and Stat5. Samples were then subjected to EMSA.

E2F1 = biological target: T3, E2F1 (Homo sapiens, UniProt Q01094); experiment: In vitro E2F1 DNA-binding activity assay, EMSA with DHFR promoter probe; conditions: cell lysates pre-incubated with compound before DHFR promoter probe
T3 construct: made in house; host or cells: Sf-9 insect cells infected with baculovirus
Description: as §1
In control studies, the effect of PLATINUM-401 was evaluated on the DNA-binding activity of the E2F1 protein that is unrelated to STATs.

T1 sequence (P42227 2-770 limits assumed): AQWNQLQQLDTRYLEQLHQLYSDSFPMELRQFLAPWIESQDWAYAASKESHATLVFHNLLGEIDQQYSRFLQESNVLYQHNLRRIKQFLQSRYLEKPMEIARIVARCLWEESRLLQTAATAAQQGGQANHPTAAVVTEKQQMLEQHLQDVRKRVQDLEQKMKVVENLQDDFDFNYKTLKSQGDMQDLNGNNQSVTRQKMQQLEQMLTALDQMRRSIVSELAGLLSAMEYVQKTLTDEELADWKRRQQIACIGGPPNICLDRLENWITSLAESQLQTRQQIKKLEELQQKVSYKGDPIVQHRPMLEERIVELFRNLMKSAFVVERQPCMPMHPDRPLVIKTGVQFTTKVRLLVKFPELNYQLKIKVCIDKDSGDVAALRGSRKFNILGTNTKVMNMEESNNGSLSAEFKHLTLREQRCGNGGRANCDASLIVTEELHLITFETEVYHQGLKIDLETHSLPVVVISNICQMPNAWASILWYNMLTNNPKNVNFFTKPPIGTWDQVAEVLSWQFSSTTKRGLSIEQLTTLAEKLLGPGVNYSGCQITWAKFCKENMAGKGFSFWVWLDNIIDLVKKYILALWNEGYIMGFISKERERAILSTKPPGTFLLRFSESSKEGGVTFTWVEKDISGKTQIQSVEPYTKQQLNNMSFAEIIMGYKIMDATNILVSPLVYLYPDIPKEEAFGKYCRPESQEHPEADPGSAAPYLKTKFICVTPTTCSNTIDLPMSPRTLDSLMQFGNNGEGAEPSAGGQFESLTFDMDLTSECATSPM
T3 sequence (Q01094 whole entry, species assumed): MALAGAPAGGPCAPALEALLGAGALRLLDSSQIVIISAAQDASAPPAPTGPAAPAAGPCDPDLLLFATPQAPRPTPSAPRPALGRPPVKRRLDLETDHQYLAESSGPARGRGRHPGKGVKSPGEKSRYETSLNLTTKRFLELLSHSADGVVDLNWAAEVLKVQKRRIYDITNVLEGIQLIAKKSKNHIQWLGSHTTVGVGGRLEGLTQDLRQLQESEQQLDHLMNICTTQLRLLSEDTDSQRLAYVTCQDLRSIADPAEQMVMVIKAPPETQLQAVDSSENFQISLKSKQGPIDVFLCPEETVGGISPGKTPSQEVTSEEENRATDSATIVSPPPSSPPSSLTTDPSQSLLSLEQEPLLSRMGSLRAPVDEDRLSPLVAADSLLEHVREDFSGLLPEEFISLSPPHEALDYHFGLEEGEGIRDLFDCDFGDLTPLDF

**Q.** With `N.N.[Cl][Pt][Cl]` [Cisplatin, reference compound] as the molecule, how does the “effect on Stat3 activity” value (Stat3 [1]) read?
**A.** no effect

**Q.** What about the “effect on DNA-binding activity of Stat1:Stat1 homodimer” value (Stat1) of the same molecule?
**A.** no detectable effect

**Q.** What about the “effect on DNA-binding activity of Stat5:Stat5 dimer” value (Stat5) of the same molecule?
**A.** no detectable effect

**Q.** And the “effect on DNA-binding activity of Stat3:Stat3 homodimer” value (Stat3 [2])?
**A.** no detectable effect

**Q.** What about the “effect on E2F1 DNA-binding activity” value (E2F1) of the same molecule?
**A.** no detectable effect
